Measurements from PMC7851395 (British Journal of Cancer, 2020).

How the values were obtained:
A549 cells = assay: MTT cytotoxicity assay, A549 cells; assay type: cell-based; conditions: Homo sapiens; A549 cells, 48 h, MTT; read-out: IC50
Description: (§1) The cytotoxicity and viability of human NSCLC cells and normal cells were determined by MTT assay. MTT assay was performed as described previously.[22] MTT assay was used to determine the cell cytotoxicity and viability in human NSCLC cells. Cells (5 × 10^3 cells/well) were plated in 96-well plates and attached overnight. After the proper treatment, the MTT solution was added at 25 µL/well and incubated at 37 °C for 4 h. The formazan crystals were dissolved in 150 µL of DMSO, and the optical density (OD) was measured using a Microplate Reader at 490 nm. The cell viability was calculated by the following formula: viability = (average OD values of treatment wells/average OD values of vehicle control wells) × 100%. And half-maximal inhibitory concentration (IC50) values were determined by GraphPad Pro Prism 7.0.

P-STAT3 = assay: Western blot of STAT3 phosphorylation; assay type: cell-based, human; conditions: H460, A549 and PC-9 cells, 12 h, concentration-dependently
Description: Tissue proteins were extracted with tissue protein lysate buffer. Cells were grown to different densities and extracted with cell protein lysate buffer. The protein was mixed with loading buffer and boiled for 10 min at 100 °C, then loaded and separated by 10% or 12% sodium dodecyl sulfate-polyacrylamide gel (SDS-PAGE) and then transferred onto a PVDF membrane blocking with 5% skim milk. The blots were incubated overnight with specific primary antibodies at 4 °C. On the second day, after washing with TBST (a mixture of tris-buffered saline (TBS) and Tween 20) three times, the […] membranes were incubated with horseradish peroxidase-conjugated secondary antibodies for 1 h. The immunoreactive bands were visualised with enhanced chemiluminescence reagent.

human NSCLC cells = assay: Colony-formation assay; assay type: cell-based; conditions: 50, 100, 200 nM for 24 h, colonies after 7 days
Description: The human NSCLC cells and normal cells were seeded at 1000 cells/well on six-well plates, placed in 5% CO2 atmosphere and cultured overnight at 37 °C. DMSO (Control) and acetyl-bufalin (50, 100, 200 nM) were added to the cells for 24 h. The fresh medium was replaced every 2 days to maintain the growth of cells for 7 days. Colonies were washed with phosphate-buffered saline (PBS), fixed with 4% paraformaldehyde at room temperature for 15 min, washed with purified water for three times and stained with Crystal violet for 10 min. Each experiment was in triplicate, and three independent experiments were carried out.

PC-9 cells [1] = assay: Wound-healing migration assay; assay type: cell-based, human; conditions: 25, 50, 100 nM, 48 h
Description: The ability of cell migration was evaluated by wound-healing assay. The cells grew to 80–90% confluence in six-well plates and then scraped the cell monolayer at the centre of the wells with the tip of a sterile 10 μL pipette to form a clean, straight wound area. Then, the wells were washed with PBS to remove detached cells from the plates. After that, cells were cultured in serum-free RPMI medium with vehicle control or acetyl-bufalin (25, 50, 100 nM). The migration of cells to the wound area was photographed at the 0, 24 and 48 h timepoints with a microscope and imaging system (Leica, Wetzlar, Germany).

PC-9 cells [2] = assay: MTT cytotoxicity assay, PC-9 cells; assay type: cell-based; conditions: Homo sapiens, PC-9, 48 h, PC-9 cells, 48 h, MTT; read-out: IC50
Description: as §1

H460 cells = assay: MTT cytotoxicity assay, H460 cells; assay type: cell-based; conditions: Homo sapiens, NCI-H460; H460 cells, 48 h, MTT; read-out: IC50
Description: as §1

[3] = tested on: human umbilical vein endothelial cell HUVEC; assay: MTT cytotoxicity assay, normal HUVEC cells; assay type: cell-based
Description: as §1

[4] = tested on: normal lung cells BEAS-2B; assay: MTT cytotoxicity assay, normal lung cells BEAS-2B; assay type: cell-based, human
Description: as §1

[5] = Pharmacokinetic study in rat plasma (LC-MS/MS); assay type: in vivo, S.D. rats
Description: For the pharmacokinetic study, female S.D. rats (body weight 200 ± 10 g) have fasted overnight with free access to water before the experiment. Twelve rats were randomly divided into four groups. The time schedule included eight timepoints, and three S.D. rats were sampled at each time-point. Bufalin and acetyl-bufalin were administered intravenously and intraperitoneally to the rats at the dose of 0.25 mg/kg and 2 mg/kg, respectively. The animals had free access to water during the experiment. Blood samples were collected from the retro-orbital plexus of each rat at 0.083, 0.25, 0.5, 1, 2, 4, 6, 8, 12, 24 h after administration. Plasma was separated from the blood after centrifugation at 6000×g for 10 min and frozen at −20 °C until analysis. In total, 20 µL of standard samples in duplicate, quality control samples in duplicate and rat plasma samples were mixed with 60 µL of ethyl acetate containing IS (200 ng/mL of tolbutamide, 50 ng/mL of propranolol and 500 ng/mL of Dic) in EP tubes. After the mixture was vortexed for 1 min, then centrifuged for 10 min (13,000 rpm, 4 °C), transferred 50 µL supernatant to a 96-well plate with 150 µL purred water, shacked for 10 min and finally injected 5 µL into liquid chromatographic-tandem mass spectrometry (LC-MS/MS) system for analysis.

[6] = tested on: patient-derived human NSCLC xenografts; assay: Patient-derived NSCLC xenograft (PDX) model; assay type: in vivo, mice; conditions: for average tumour volume: 14 days, vehicle 931.90 mm^3
Description: For the patient-derived human NSCLC xenografts (PDXs) animal model, four pairs of lung cancer samples were obtained from patients who had undergone surgical treatment of lung cancer in the First Affiliated Hospital of Wenzhou Medical University. Fresh tumour tissue was sterilely incised into ~3-mm^3 pieces and subcutaneously injected into immunodeficient NOD/SCID mice within 30 min. The remaining tumour tissues were stored at −80 °C. When the tumours have successfully engrafted, tumour samples were removed and passaged into the third generation of nude mice for the following studies. All 18 mice were allocated into three groups (n = 6) and received i.p. injection of acetyl-bufalin (1 mg/kg/2 days and 2 mg/kg/2 days) as compared with mice injected with PBS (vehicle group) every other day. Tumour volume was measured as V = (L × W × W)/2, in which L and W represent the length and width of tumour. After 14 days, all the mice were killed by cervical dislocation. The tumours, hearts, livers, kidneys and lungs were removed for use in the histology and western blot analysis.

NIH mice = assay: Acute toxicity test; assay type: in vivo
Description: In the acute toxicity test, 30 NIH mice (female, 8 weeks old) were randomly divided into three groups (n = 10), including vehicle group, bufalin group (30 mg/kg) and acetyl-bufalin group (30 mg/kg). The three groups received intraperitoneal injection only on the first day. All the mice were housed under 12 h light–dark cycles at 25 °C and free for water and diet. […] All the mice were sacrificed by cervical dislocation.

CC(=O)OC1CCC2(C)C(CCC3C2CCC2(C)C(c4ccc(=O)oc4)CCC32O)C1 (stereo not shown) [acetyl-bufalin]
IC50 (A549 cells): 28.1 nM | P-STAT3 protein levels (P-STAT3): reduced | NSCLC cell cloning ability (human NSCLC cells): inhibited dose-dependently | PC-9 cell migration (PC-9 cells [1]): markedly blocked | IC50 (PC-9 cells [2]): 64 nM | IC50 (H460 cells): 27.8 nM | cytotoxic effect on normal cells [3]: low toxicity | cytotoxic effect on normal cells [4]: low toxicity | elimination in blood ([5]; 0.25 mg/kg i.v. and 2 mg/kg i.p.): much slower than bufalin | Cmax ([5]; acetyl-bufalin and bufalin formed from it, compared with bufalin dosing): smaller | average tumour volume ([6]; 1 mg/kg per 2 days i.p.): 544.43 mm^3 | average tumour volume ([6]; 2 mg/kg per 2 days i.p.): 256.29 mm^3 | body weight of the mice ([6]; 1 and 2 mg/kg per 2 days i.p.): stable | gross toxicities on heart, liver, kidney and lung ([6]; H&E staining, compared with vehicle): no gross toxicities | weight of the remaining mice (NIH mice; 30 mg/kg single i.p., 14 days, compared with vehicle): stable | mortality (mice died) (NIH mice; 30 mg/kg single intraperitoneal injection, observed 14 days, n = 10): 2/10
